Key:
[1] = tested on: idiopathic pulmonary fibrosis; assay: Idiopathic pulmonary fibrosis animal model (bleomycin); format: in vivo, SD rats; conditions: intraperitoneal (IP) 5 mg/kg, 3 consecutive weeks, FIG. 6; for pathology scores: H&E and Masson staining; for WBC: alveolar lavage fluid; for HYP: lung tissue
Protocol: In this test example, the efficacy of the compounds of the present disclosure was tested on idiopathic pulmonary fibrosis in an idiopathic pulmonary fibrosis animal model. Briefly, anesthetized 6-week-old SD rats were fixed on a foam board with medical tape. Firstly, the skin on the surface of the trachea was cut with surgical scissors to fully expose the trachea, and a 100-microlitre micro-syringe containing a certain volume of bleomycin (BLM 5 mg/kg) solution drawn based on the body weight of the rat was inserted into the trachea through the oral cavity to administer by slow bolus injection. After administration of the BLM solution, the foam plate was immediately rotated and shaken to distribute the BLM solution as evenly as possible in the lung tissue. Then the skin on the surface of the trachea was sutured with surgical sutures and about 0.5 to 1.0 mL of penicillin solution was dripped onto the epidermis to prevent infection of the surgical wound. After the 7th day of modelling, the compound solution of the present disclosure was administered via intraperitoneal (IP) injection (5 mg/kg) according to the weight of the rat for 3 consecutive weeks. Rats were euthanized by carbon dioxide on Day 28, the lung tissues were removed, the left alveolar lavage fluid was collected for white blood cell (WBC) counting, the right lung tissue portion was used for hydroxyproline (HYP) assay, and the remaining lung tissues were stained for pathology by H&E staining and Masson staining.

hypertrophic scars = assay: Rabbit ear hypertrophic scar model; format: in vivo, New Zealand white rabbits; conditions: 150 μM, 100 μL injected into each lesion once a week, 4 injections, FIG. 12
Protocol: In this test example, the efficacy of the compounds of the present disclosure was tested on hypertrophic scars in a rabbit ear hypertrophic scar animal model. Briefly, 15 New Zealand white rabbits, male, 3 months old, were used. The New Zealand rabbits were anaesthetized with sodium pentobarbital and six circular full-thickness wounds with a diameter of 10 mm were made on the ventral surface of each ear by removing the epidermis, dermis and perichondrium to expose the cartilage. The rabbits were randomly divided into control, RX001 experimental and RX301 experimental groups. On postoperative day 14, after complete re-epithelialization of the wound surface, the compound (150 μM, 100 μL, dissolved in DMSO solution) or negative control DMSO 100 μL was injected into the center of each lesion from the wound edge once a week for a total of 4 injections. Improvement of scar formation by the drugs was assessed by SEI (Scar Excess Index).

platelets = assay: Platelet toxicity test in mice (platelet count); format: in vivo; conditions: mice, 0.5 mg/kg single intraperitoneal injection, blood at 6 hours, FIG. 1
Protocol: In this test example, C57 mice were chosen to detect the effect of the target compounds on platelets.
7 to 8 weeks old […] mice were randomly divided into vehicle group and compound group. The test compound (0.5 mg/kg) or blank vehicle was administrated via single intraperitoneal injection. Blood was collected from the retroorbital venous plexus of the mice at 6 hours, and placed in a blood routine tube containing anticoagulant EDTA-K2. After shaking gently, the blood physiological indicators were measured using a hematology analyzer, with the platelet count as the target parameter for this platelet toxicity test.

[2] = tested on: oxygen-induced retinopathy (OIR); assay: Mouse model of oxygen-induced retinopathy (OIR); format: in vivo; conditions: intravitreal (IVT), 1 μL of 200 μM at P12, read at P17, FIG. 3
Protocol: The efficacy of the prodrugs RX001-RX006 as well as RX301 were investigated in a mouse model of oxygen-induced retinopathy (OIR) which to some extent indicates an in vivo model of retinopathy of prematurity (ROP), diabetic retinopathy, and wet age-related macular degeneration.
From postnatal Day 7 (P7) to Day 12 (P12), C57Bl/6 mouse pups and their CD 1 foster mothers were exposed to hyperoxia (75% 02). At P12, the animals were injected intravitreally with 1 μL of the test composition formulated in 1% DMSO, 10% Tween 80, and 20% PEG-400 (200 μM of the compound) and returned to room air until day 17 (P17). On P17, the eyeballs were enucleated, and the retinas were dissected for vascular staining. To determine the area of avascularity or angiogenesis, the retinas were flattened and stained with isolectin B4 (IB4).

Compound	pathology scores [1]	WBC [1]	HYP [1]	scar excess index (hypertrophic scars)	platelet toxicity (platelet count) (platelets)	angiogenesis [2]	avascular zone [2]
CCN1CCN(C(=O)c2nc(N3CCc4cccc(C(=O)Nc5nc6ccccc6s5)c4C3)ccc2-c2cnn(CC34CC5CC(CC(C5)C3)C4)c2C)CC1 [RX001]	statistically significant improvements	statistically significant improvements	statistically significant improvements	statistically significant improvement			
Cc1c(-c2ccc(N3CCc4cccc(C(=O)Nc5nc6ccccc6s5)c4C3)nc2C(=O)N2CCC(CCOP(=O)(O)O)CC2)cnn1CC12CC3CC(CC(C3)C1)C2 [RX301]	statistically significant improvements	statistically significant improvements	statistically significant improvements	statistically significant improvement	significantly improved	statistically significant improvements	statistically significant improvements

— patent US20260256772A1, “BENZOTHIAZOLE COMPOUND AND USE THEREOF” (NANJING REJU THERAPEUTICS, INC., priority 2022, published 2026)
